pIC50: −log10 of the molar value.
Tests used:
Assay type in all cases: biochemical
[1] = molecular target: EGFR (Homo sapiens, UniProt P00533); assay: Inhibition of a panel of kinases, in vitro HotSpot kinase assay: EGFR
Experimental: (§1) The degree of inhibition of a panel of kinases is determined using the in vitro HotSpot kinase assay (purified enzymes, ^33P-ATP, an appropriate substrate and 1 uM ATP).

[2] = molecular target: T1, JAK3 (Homo sapiens, UniProt P52333); assay: Inhibition of a panel of kinases, in vitro HotSpot kinase assay: JAK3
T1 sequence (P52333 1-1124): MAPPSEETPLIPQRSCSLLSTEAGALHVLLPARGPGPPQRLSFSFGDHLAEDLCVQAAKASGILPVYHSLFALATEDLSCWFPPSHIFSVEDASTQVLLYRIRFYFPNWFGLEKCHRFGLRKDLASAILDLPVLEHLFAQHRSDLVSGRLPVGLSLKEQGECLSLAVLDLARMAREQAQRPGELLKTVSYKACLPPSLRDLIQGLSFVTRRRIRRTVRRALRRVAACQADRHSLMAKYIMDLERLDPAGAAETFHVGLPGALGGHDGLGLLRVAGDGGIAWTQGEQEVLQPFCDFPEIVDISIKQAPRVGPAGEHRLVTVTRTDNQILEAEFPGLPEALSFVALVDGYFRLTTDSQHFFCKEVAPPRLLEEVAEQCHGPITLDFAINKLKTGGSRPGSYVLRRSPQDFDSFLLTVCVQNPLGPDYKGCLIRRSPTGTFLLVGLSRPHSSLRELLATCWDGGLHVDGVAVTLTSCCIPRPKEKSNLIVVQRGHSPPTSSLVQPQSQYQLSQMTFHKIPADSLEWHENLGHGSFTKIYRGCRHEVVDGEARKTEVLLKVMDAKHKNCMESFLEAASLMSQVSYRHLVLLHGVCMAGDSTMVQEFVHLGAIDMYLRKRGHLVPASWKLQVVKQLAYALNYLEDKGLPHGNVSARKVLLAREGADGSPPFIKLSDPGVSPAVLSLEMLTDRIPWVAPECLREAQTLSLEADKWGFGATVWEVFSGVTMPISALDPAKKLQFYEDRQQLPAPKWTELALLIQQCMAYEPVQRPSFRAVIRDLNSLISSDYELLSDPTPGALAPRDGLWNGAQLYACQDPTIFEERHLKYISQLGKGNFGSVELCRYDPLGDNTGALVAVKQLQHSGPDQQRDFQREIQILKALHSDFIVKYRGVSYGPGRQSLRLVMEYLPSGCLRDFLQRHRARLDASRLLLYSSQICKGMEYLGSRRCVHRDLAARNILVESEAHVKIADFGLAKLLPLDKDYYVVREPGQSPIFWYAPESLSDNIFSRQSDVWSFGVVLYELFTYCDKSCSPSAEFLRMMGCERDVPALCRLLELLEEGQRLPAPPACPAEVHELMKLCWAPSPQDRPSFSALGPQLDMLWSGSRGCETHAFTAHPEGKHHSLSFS
Experimental: as §1

[3] = molecular target: Btk (Homo sapiens, UniProt Q06187); assay: Btk kinase activity, TR-FRET assay; details: read-out: Btk (IC50)
Btk, sequence (Q06187 whole entry): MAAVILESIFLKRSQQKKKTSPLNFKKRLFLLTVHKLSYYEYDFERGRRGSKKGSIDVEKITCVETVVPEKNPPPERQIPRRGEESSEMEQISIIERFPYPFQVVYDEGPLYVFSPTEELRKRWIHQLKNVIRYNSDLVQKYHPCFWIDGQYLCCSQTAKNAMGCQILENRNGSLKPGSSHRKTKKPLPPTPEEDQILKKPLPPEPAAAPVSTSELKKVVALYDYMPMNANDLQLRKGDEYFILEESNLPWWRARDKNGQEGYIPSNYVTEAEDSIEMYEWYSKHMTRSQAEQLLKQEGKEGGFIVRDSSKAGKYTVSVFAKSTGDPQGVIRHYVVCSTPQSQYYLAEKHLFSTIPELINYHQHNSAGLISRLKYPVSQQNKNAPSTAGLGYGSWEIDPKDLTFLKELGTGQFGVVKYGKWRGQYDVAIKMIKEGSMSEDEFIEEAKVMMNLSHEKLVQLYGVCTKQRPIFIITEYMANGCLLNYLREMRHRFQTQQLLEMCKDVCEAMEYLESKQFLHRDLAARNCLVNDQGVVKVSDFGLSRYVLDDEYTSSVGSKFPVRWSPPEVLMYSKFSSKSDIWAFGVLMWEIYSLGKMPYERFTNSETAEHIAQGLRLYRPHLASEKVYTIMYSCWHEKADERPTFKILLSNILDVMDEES
How it was run: (§2)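 Enzyme (Btk 0.5 nM; Lck 6 nM) reacted 1 h with inhibitor, ATP at Km and biotin-peptide substrate in pH 7.4 buffer, 10% DMSO. Phosphopeptide detected by Eu-p-Tyr100 antibody plus streptavidin-APC (665/615 nm). IC50 calculated from fitted Ki(app) via ATP/Km correction plus half total enzyme.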

[4] = molecular target: Lck (Homo sapiens, UniProt P06239); assay: Lck kinase activity, TR-FRET assay; details: read-out: LCK (IC50)
Lck, sequence (P06239 whole entry, species assumed): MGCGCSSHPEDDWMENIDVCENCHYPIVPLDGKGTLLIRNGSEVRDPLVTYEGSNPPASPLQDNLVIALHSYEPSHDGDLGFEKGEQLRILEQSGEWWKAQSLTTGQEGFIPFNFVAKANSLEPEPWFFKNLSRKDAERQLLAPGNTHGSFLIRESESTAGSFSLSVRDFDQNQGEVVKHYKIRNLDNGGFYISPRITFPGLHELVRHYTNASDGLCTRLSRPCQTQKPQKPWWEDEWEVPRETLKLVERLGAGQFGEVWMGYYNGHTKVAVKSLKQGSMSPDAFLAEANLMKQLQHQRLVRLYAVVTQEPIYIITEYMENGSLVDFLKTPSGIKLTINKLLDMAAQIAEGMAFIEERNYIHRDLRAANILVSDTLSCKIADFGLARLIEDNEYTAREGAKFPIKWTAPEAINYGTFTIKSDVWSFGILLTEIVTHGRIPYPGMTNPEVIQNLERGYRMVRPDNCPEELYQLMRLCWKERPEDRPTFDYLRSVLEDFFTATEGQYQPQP
How it was run: as §2

EGFR, sequence (P00533 25-1210): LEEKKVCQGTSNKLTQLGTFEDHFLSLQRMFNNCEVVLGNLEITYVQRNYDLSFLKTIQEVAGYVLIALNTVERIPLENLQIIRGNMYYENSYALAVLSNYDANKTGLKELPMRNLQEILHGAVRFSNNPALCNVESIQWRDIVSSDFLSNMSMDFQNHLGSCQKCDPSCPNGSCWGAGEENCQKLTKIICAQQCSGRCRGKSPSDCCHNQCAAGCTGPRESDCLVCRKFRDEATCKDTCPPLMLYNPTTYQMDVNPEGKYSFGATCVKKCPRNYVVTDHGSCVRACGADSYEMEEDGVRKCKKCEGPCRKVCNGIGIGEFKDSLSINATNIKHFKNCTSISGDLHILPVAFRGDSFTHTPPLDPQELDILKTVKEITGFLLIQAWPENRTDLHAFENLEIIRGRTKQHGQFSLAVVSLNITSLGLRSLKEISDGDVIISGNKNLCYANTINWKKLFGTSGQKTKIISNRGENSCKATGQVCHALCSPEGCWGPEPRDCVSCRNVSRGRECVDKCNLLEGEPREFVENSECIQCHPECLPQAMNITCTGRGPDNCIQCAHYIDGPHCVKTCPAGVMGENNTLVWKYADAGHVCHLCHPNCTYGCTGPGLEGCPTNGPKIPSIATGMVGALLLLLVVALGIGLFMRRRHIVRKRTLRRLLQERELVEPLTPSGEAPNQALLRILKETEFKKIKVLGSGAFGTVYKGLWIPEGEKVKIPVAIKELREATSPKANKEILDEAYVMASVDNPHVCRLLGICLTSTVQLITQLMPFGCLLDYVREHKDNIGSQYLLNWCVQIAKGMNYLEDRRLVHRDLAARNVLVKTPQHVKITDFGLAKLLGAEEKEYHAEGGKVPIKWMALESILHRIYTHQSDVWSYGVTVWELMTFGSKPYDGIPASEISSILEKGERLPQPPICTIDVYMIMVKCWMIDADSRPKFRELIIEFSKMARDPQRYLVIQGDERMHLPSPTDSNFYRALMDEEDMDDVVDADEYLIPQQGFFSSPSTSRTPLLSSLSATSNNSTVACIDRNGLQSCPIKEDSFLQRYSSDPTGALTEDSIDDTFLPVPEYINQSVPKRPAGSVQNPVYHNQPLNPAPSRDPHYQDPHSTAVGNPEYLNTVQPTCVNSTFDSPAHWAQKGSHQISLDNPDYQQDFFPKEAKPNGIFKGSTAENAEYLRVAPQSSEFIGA

pIC50 [1] | pIC50 [2] | pIC50 [3] | pIC50 [4] | Structure (SMILES)
5.00 to 6.00 | < 5.00 | > 7.00 | 6.00 to 7.00 | Cc1cnc(NC(=O)c2ccc(Oc3ccnc4[nH]nc(N[C@@H]5CCCN(C(=O)/C=C/CN(C)C)C5)c34)cc2)s1 [compound 198, 4-[(3-{[(3R)-1-[(2E)-4-(dimethylamino)but-2-enoyl]piperidin-3-yl]amino}-1H-pyrazolo[3,4-b]pyridin-4-yl)oxy]-N-(5-methyl-1,3-thiazol-2-yl)benzamide]
5.00 to 6.00 | 6.00 to 7.00 | 6.00 to 7.00 | > 7.00 | C=CC(=O)N1CC[C@H](Nc2n[nH]c3nccc(Oc4cccc(C(=O)Nc5ccc(C(C)C)c(C)c5)c4)c23)C1 [compound 126, N-[3-methyl-4-(propan-2-yl)phenyl]-3-[(3-{[(3S)-1-(prop-2-enoyl)pyrrolidin-3-yl]amino}-1H-pyrazolo[3,4-b]pyridin-4-yl)oxy]benzamide]
> 7.00 | > 7.00 | > 7.00 | 6.00 to 7.00 | Cc1cc(NC(=O)c2cccc(Oc3ccnc4[nH]nc(N[C@@H]5CCCN(C(=O)C#CCO)C5)c34)c2)ccc1C(C)C [compound 251, (R)-3-(3-(1-(4-hydroxybut-2-ynoyl)piperidin-3-ylamino)-1H-pyrazolo[3,4-b]pyridin-4-yloxy)-N-(4-isopropyl-3-methylphenyl)benzamide]
> 7.00 | > 7.00 | > 7.00 | 5.00 to 6.00 | C=CC(=O)N1CCC[C@@H](Oc2n[nH]c3nccc(Nc4cccc(C(=O)Nc5ccc(C(C)C)c(C)c5)c4)c23)C1 [compound 132, N-[3-methyl-4-(propan-2-yl)phenyl]-3-[(3-{[(3R)-1-(prop-2-enoyl)piperidin-3-yl]oxy}-1H-pyrazolo[3,4-b]pyridin-4-yl)amino]benzamide]
6.00 to 7.00 | 6.00 to 7.00 | > 7.00 | 6.00 to 7.00 | CN(C)C/C=C/C(=O)N(C)[C@H]1CC[C@@H](Nc2n[nH]c3nccc(Oc4cccc(Oc5ccccc5)c4)c23)CC1 [compound 21, (2E)-4-(dimethylamino)-N-methyl-N-[(1s,4s)-4-{[4-(3-phenoxyphenoxy)-1H-pyrazolo[3,4-b]pyridin-3-yl]amino}cyclohexyl]but-2-enamide]
5.00 to 6.00 | 6.00 to 7.00 | > 7.00 | < 5.00 | C=CC(=O)N1CCC[C@@H](Nc2n[nH]c3nccc(Oc4ccc(C(=O)Nc5cc(C)n(C)n5)cc4)c23)C1 [compound 159]
< 5.00 | < 5.00 | > 7.00 | 5.00 to 6.00 | Cc1ccnc(NC(=O)c2ccc(Oc3ccnc4[nH]nc(N[C@@H]5CCN(C(=O)C6(C#N)CC6)C5)c34)cc2)c1 [compound 279, (R)-4-(3-(1-(1-cyanocyclopropanecarbonyl)pyrrolidin-3-ylamino)-1H-pyrazolo[3,4-b]pyridin-4-yloxy)-N-(4-methylpyridin-2-yl)benzamide]
< 5.00 | < 5.00 | < 5.00 | < 5.00 | CCC(=O)N1CCC[C@@H](Nc2n[nH]c3nccc(Oc4ccc(-c5nc6ccccc6[nH]5)cc4)c23)C1 [compound 231, 1-[(3R)-3-({4-[4-(1H-1,3-benzodiazol-2-yl)phenoxy]-1H-pyrazolo[3,4-b]pyridin-3-yl}amino)piperidin-1-yl]propan-1-one]
6.00 to 7.00 | < 5.00 | > 7.00 | > 7.00 | CN(C/C=C/C(=O)N1CCC[C@@H](Nc2n[nH]c3nccc(Oc4ccc(Oc5ccccc5)cc4)c23)C1)C1CC1 [compound 8, (2E)-4-[cyclopropyl(methyl)amino]-1-[(3R)-3-{[4-(4-phenoxyphenoxy)-1H-pyrazolo[3,4-b]pyridin-3-yl]amino}piperidin-1-yl]but-2-en-1-one]
< 5.00 | < 5.00 | 6.00 to 7.00 | 5.00 to 6.00 | Cc1cccc(NC(=O)c2ccc(Oc3ccnc4[nH]nc(N[C@@H]5CCCN(C(=O)C6(C)CCOCC6)C5)c34)cc2)n1 [compound 114, 4-[(3-{[(3R)-1-(4-methyloxane-4-carbonyl)piperidin-3-yl]amino}-1H-pyrazolo[3,4-b]pyridin-4-yl)oxy]-N-(6-methylpyridin-2-yl)benzamide]
6.00 to 7.00 | 5.00 to 6.00 | > 7.00 | > 7.00 | Cc1cc(Oc2ccccc2)ccc1Oc1ccnc2[nH]nc(N[C@@H]3CCCN(C(=O)/C=C/CN(C)C4CC4)C3)c12 [compound 169]
6.00 to 7.00 | 6.00 to 7.00 | > 7.00 | 6.00 to 7.00 | C=CC(=O)N1CCC[C@@H](Nc2n[nH]c3nccc(Oc4ccc(-c5nc6ccccc6s5)cc4)c23)C1 [compound 192]
< 5.00 | < 5.00 | 6.00 to 7.00 | 5.00 to 6.00 | CCNC(=O)N1CCC[C@@H](Nc2n[nH]c3nccc(Oc4ccc(-c5nc6ccccc6s5)cc4)c23)C1 [compound 216, (3R)-3-({4-[4-(1,3-benzothiazol-2-yl)phenoxy]-1H-pyrazolo[3,4-b]pyridin-3-yl}amino)-N-ethylpiperidine-1-carboxamide]
5.00 to 6.00 | < 5.00 | > 7.00 | 6.00 to 7.00 | Cc1ccnc(NC(=O)c2ccc(Oc3ccnc4[nH]nc(N[C@@H]5CCCN(S(C)(=O)=O)C5)c34)cc2)c1 [compound 269, (R)-N-(4-methylpyridin-2-yl)-4-(3-(1-(methylsulfonyl)piperidin-3-ylamino)-1H-pyrazolo[3,4-b]pyridin-4-yloxy)benzamide]
< 5.00 | < 5.00 | 6.00 to 7.00 | 5.00 to 6.00 | Cc1cccc(NC(=O)c2ccc(Oc3ccnc4[nH]nc(N[C@@H]5CCCN(C(=O)C6(C)COC6)C5)c34)cc2)n1 [compound 113, 4-[(3-{[(3R)-1-(3-methyloxetane-3-carbonyl)piperidin-3-yl]amino}-1H-pyrazolo[3,4-b]pyridin-4-yl)oxy]-N-(6-methylpyridin-2-yl)benzamide]
5.00 to 6.00 | < 5.00 | > 7.00 | > 7.00 | Cc1ccnc(NC(=O)c2ccc(Oc3ccnc4[nH]nc(N[C@@H]5CCCN(C(=O)CCCN(C)C)C5)c34)cc2)c1 [compound 95]
< 5.00 | < 5.00 | > 7.00 | 6.00 to 7.00 | CC#CC(=O)N1CCC[C@@H](Nc2n[nH]c3nccc(Oc4ccc(C(=O)Nc5nc(C)c(C)s5)cc4)c23)C1 [compound 175]
6.00 to 7.00 | > 7.00 | > 7.00 | > 7.00 | C=CC(=O)N1CC[C@@H](Nc2n[nH]c3nccc(Oc4cccc(C(=O)Nc5ccc(C(C)C)c(C)c5)c4)c23)C1 [compound 122, N-[3-methyl-4-(propan-2-yl)phenyl]-3-[(3-{[(3R)-1-(prop-2-enoyl)pyrrolidin-3-yl]amino}-1H-pyrazolo[3,4-b]pyridin-4-yl)oxy]benzamide]
> 7.00 | < 5.00 | > 7.00 | > 7.00 | CN(C)C/C=C/C(=O)N1CC[C@@H](Nc2n[nH]c3nccc(Oc4ccc(Oc5ccccc5)cc4)c23)C1 [compound 5, (2E)-4-(dimethylamino)-1-[(3R)-3-{[4-(4-phenoxyphenoxy)-1H-pyrazolo[3,4-b]pyridin-3-yl]amino}pyrrolidin-1-yl]but-2-en-1-one]
5.00 to 6.00 | 5.00 to 6.00 | > 7.00 | 5.00 to 6.00 | Cc1nc(NC(=O)c2ccc(Oc3ccnc4[nH]nc(N[C@@H]5CCCN(C(=O)/C=C/CN(C)C6CC6)C5)c34)cc2)sc1C [compound 164]

Structure (SMILES) | pIC50 [1] | pIC50 [2] | pIC50 [3] | pIC50 [4]
CCOP(=O)(CCC(=O)N1CCC[C@@H](Nc2n[nH]c3nccc(Oc4ccc(C(=O)Nc5cc(C)ccn5)cc4)c23)C1)OCC [compound 273, (R)-diethyl 3-(3-(4-(4-(4-methylpyridin-2-ylcarbamoyl)phenoxy)-1H-pyrazolo[3,4-b]pyridin-3-ylamino)piperidin-1-yl)-3-oxopropylphosphonate] | < 5.00 | < 5.00 | > 7.00 | 5.00 to 6.00
